Data published in patent US6548041B1, “Dopamine transporter imaging agents” (Organix, Inc., priority 1999, dated 2003).

Tests used:
[1] = biological target: dopamine transporter (DAT); test: Binding affinity for the dopamine transporter; settings: for DAT/SERT: selectivity ratio from the IC50 values for DAT and SERT
SERT = SERT (Homo sapiens, UniProt P31645); test: Binding affinity for SERT (selectivity test)
DAT sites in striatum [2] = biological target: T1, DAT sites in striatum (Macaca mulatta, UniProt Q7JHP9); test: SPECT imaging of monkey brain with 99mTc labeled tracers; type: in vivo, Rhesus monkeys; settings: for accumulation of radioactivity in striatum vs other areas of the brain (SPECT images): images acquired between 30 and 50 minutes after injection
T1 construct: from tissue; host or cells: brain (striatum) of living rhesus monkeys, imaged in vivo
T1 sequence (Q7JHP9 1-620): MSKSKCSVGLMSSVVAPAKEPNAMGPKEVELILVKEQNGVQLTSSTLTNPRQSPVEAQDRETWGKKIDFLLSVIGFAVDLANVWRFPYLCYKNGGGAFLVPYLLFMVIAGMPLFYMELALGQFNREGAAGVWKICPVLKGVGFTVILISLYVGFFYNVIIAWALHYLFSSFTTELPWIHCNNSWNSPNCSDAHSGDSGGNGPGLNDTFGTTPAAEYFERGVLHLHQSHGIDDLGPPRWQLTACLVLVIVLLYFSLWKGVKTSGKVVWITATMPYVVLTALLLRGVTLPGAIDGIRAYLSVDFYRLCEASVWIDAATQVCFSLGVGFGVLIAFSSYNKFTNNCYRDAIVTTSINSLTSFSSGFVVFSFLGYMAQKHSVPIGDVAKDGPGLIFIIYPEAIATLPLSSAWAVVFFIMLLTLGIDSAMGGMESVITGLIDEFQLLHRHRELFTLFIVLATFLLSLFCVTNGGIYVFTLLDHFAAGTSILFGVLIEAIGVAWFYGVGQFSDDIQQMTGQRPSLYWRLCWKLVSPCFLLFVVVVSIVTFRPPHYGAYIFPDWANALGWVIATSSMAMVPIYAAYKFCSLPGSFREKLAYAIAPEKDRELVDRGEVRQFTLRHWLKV
Protocol: (§1) All SPECT images were acquired with a MultiSPECT 2 gamma camera (Siemens, Hoffman Estates, Ill.) equipped with fan-beam collimators and peaked to the 140 KeV photopeak of ^99mTc (15% window). This camera has intrinsic resolution of 4.6 mm (FWHM), and a sensitivity of ˜240 cps/mCi. Images were acquired over 360° (60 projections/head, 128×128 matrix) in the continuous mode. Image reconstruction was performed using a conventional filtered back-projection algorithm to an in-plane resolution of 10 mm FWHM and attenuation correction via the Chang method.
(§2) Rhesus monkeys weighing approximately 7 kg were anesthetized with ketamine/xylazine (15.0 and 1.5 mg/kg) and positioned prone on the imaging bed of the SPECT camera. Before the start of imaging, a venous catheter was inserted in a peripheral vein for radiopharmaceutical administration. The heads of the animals were immobilized with a custom fabricated head holder. Approximately 20-25 mCi of ^99mTc labeled O-1505T, O-1508T, O-1561T or O-1560T was injected intravenously over 60 seconds. Dynamic SPECT imaging was initiated at the end of the infusion and consisted of 2 min. acquisitions during the first hour and 5 min. acquisitions thereafter.
(§3) SPECT slices with greatest striatal activity or in which the occipital cortex was well visualized were summed and regions of interest (ROI's) were constructed. In the striatal planes, ROI's were placed on the right and left striatum (caudate+putamen). Radioactivity in the right and left striatum were averaged. ROI radioactivities (cpm/cc) were decay corrected to the time of injection. The difference between striatal and occipital cortex activity (specific binding) was calculated for each image and was plotted as a function of time. Corrections for scattered fraction and partial volume effects were not performed.

DAT sites in striatum [3] = test: as above; type: in vivo, Rhesus monkeys; settings: SPECT images
Protocol: as §1, §2, §3

[4] = Biodistribution and radiation dosimetry (MIRdose); type: in vivo, Sprague-Dawley rats; settings: rat, 5 min to 24 hrs after injection
Protocol: Groups of male Sprague-Dawley rats were in injected with ˜10 mCi of ^99mTc labeled O-1505T and O-1561T. At time intervals between 5 min. and 24 hrs after injection, groups of 6 animals injected with each radiopharmaceutical were sacrificed and biodistribution was measured. Samples of blood, heart, lung, liver, spleen, kidney, adrenal, stomach, GI tract, testes, bone, bone marrow and skeletal muscle were weighed and radioactivity was measured with a well type gamma counter (LKB model #1282, Wallac Oy, Finland). To correct for radioactive decay and permit calculation of the concentration of radioactivity in each organ as a fraction of the administered dose, aliquots of the injected doses were counted simultaneously. The results were expressed as percent injected dose per gram (%I.D./g) and radiation dosimetry was estimated by the MIRdose method.

SERT, sequence (P31645 whole entry, species assumed): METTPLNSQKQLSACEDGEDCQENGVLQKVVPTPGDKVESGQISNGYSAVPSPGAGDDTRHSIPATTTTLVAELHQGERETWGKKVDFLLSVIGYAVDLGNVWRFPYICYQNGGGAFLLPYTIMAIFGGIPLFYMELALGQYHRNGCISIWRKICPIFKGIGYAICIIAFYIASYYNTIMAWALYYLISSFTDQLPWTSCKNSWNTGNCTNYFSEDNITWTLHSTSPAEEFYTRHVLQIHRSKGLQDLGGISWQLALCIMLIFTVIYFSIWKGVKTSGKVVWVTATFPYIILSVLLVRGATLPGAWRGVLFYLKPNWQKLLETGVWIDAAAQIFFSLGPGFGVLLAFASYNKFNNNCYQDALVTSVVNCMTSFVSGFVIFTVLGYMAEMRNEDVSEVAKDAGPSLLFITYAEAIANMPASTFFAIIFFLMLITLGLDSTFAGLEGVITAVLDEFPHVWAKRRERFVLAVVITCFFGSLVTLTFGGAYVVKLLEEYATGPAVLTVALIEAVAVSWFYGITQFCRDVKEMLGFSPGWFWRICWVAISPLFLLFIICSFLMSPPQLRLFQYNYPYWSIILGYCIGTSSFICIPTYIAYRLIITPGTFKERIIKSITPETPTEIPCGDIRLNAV

SMILES	IC50 [1]	DAT/SERT [1]	IC50 (SERT)	other results
COC(=O)C1C(c2ccc3ccccc3c2)CC2CCC1N2CCC[N+]12CC[S][Re-]13(=[O])[S]CC[N]3C(=O)C2 (mixture of isomers) [Compound O-1339, N-[(2-((3′-N′-Propyl-(1″R)-2″β-methoxycarbonyl-3″β-(2-naphthyl)-tropane)(2-mercaptoethyl)amino)acetyl)-2-aminoethanethiolato]-rhenium (V) Oxide]	3.6 nM	16	59 nM	–
COC(=O)C1=C(c2ccc(Cl)c(Cl)c2)CC2CCC1N2CCC[N+]12CC[S][Re-]13(=[O])[S]CC[N]3C(=O)C2 (centres unmarked) [Compound O-1136, N-[(2-((3′-N′-Propyl-(1″R)-3″-(3,4-dichlorophenyl)trop-2-ene-2″-methoxycarbonyl)(2-mercaptoethyl)amino)acetyl)-2-aminoethane-thiolato]rhenium (V) Oxide]	60 nM	28	1690 nM	–
COC(=O)C1C(c2ccc(F)cc2)CC2CCC1N2CCCN1CC[S][Re]2(=[O])[S]CC[N]2C(=O)C1 (single isomer, unassigned) [Compound O-928]	3 nM	10	30 nM	–
CCC(=O)C1C(c2ccc(Cl)c(Cl)c2)CC2CCC1N2CCCN1CC[S][99Tc]2(=[O])[S]CC[N]2C(=O)C1 (stereo not drawn) [Compound O-1560T, N-[(2-((3′-N′-Propyl-(1″R)-2″β-1-propanoyl-3″β-(3,4-dichlorophenyl)-tropane)(2-mercaptoethyl)amino)acetyl)-2-aminoethanethiolato]-technetium (V) Oxide]	–	–	–	accumulation of radioactivity in striatum vs other areas of the brain (SPECT images) (DAT sites in striatum [2]): results more like O-1505T and O-1561T
COC(=O)C1C(c2ccc(Cl)c(Cl)c2)CC2CCC1N2CCC[N+]12CC[S][Re-]13(=[O])[S]CC[N]3C(=O)C2 (mixture of isomers) [Compound O-863]	40 nM	–	–	–
COC(=O)C1C(c2ccc(F)cc2)CC2CCC1N2CCC[N+]12CC[S][Re-]13(=[O])[S]CC[N]3C(=O)C2 (centres unmarked) [Compound O-1186]	3.8 nM	340	1300 nM	–
CCC(=O)C1C(c2ccc(F)cc2)CC2CCC1N2CCCN1CC[S][Re]2(=[O])[S]CC[N]2C(=O)C1 (mixture of isomers) [Compound O-1508, N-[(2-((3′-N′-Propyl-(1″R)-3″β-(4-fluorophenyl)tropane-2″β-1-propanoyl)(2-mercaptoethyl)amino)acetyl)-2-aminoethane-thiolato]rhenium (V) oxide]	5.9 nM	34	200 nM	–
CON(C)C(=O)C1C(c2ccc(F)cc2)CC2CCC1N2CCC[N+]12CC[S][Re-]13(=[O])[S]CC[N]3C(=O)C2 (stereo not drawn) [Compound O-1451, N-[(2-((3′-N′-Propyl-(1″R)-3″α-(4-fluorophenyl)tropane-2″β-methoxymethylcarbamoyl)(2-mercaptoethyl)amino)acetyl)-2-aminoethanethiolato]rhenium (V) Oxide]	40 nM	80	3260 nM	–
CCC(=O)C1C(c2ccc(Cl)c(Cl)c2)CC2CCC1N2CCCN1CC[S][99Tc]2(=[O])[S]CC[N]2C(=O)C1 (stereo not drawn) [Compound O-1561T, N-[(2-((3′-N′-Propyl-(1″R)-2″β-1-propanoyl-3″α-(3,4-dichlorophenyl)-tropane)(2-mercaptoethyl)amino)acetyl)-2-aminoethanethiolato]-technetium (V) Oxide]	–	–	–	time after injection to excellent contrast between striatum and the rest of the brain (DAT sites in striatum [2]; i.v., normal monkeys): ≤ 30 min; accumulation of radioactivity in striatum vs other areas of the brain (SPECT images) (DAT sites in striatum [2]): high concentrations of radiopharmaceutical in the striatum with minimal accumulation in other areas of the brain; striatal to occipital cortex ratio (DAT sites in striatum [2]; region of interest analysis, SPECT images 30-50 minutes after i.v. injection of 20-25 mCi): ~2.5; accumulation in thalamus, hypothalamus or midbrain (regions rich in 5-HT transporters) (DAT sites in striatum [3]): lack of accumulation; clearance from tissues (biodistribution) [4]: cleared rapidly from all tissues of the rat
COC(=O)C1C(c2ccc(F)cc2)CC2CCC1N2CCCN1CC[S][Re]2(=[O])[S]CC[N]2C(=O)C1 (single isomer, unassigned) [Compound O-927]	5 nM	40	200 nM	–
COC(=O)C1C(c2ccc(Cl)c(Cl)c2)CC2CCC1N2CCC[N+]12CC[S][Re-]13(=[O])[S]CC[N]3C(=O)C2 (stereo not drawn) [Compound O-1196, N-[(2-((3′-N′-Propyl-(1″R)-3″α-(3,4-dichlorophenyl)-2″β-methoxy-carbonyltropane)(2-mercaptoethyl)amino)acetyl)-2-aminoethanethiolato]rhenium (V) Oxide]	10 nM	64	640 nM	–
COC(=O)C1C(c2ccc(F)cc2)CC2CCC1N2CCC[N+]12CC[S][Re-]13(=[O])[S]CC[N]3C(=O)C2 (mixture of isomers) [Compound O-861]	2.9 nM	28	80 nM	–
CCC(=O)C1C(c2ccc(Cl)c(Cl)c2)CC2CCC1N2CCCN1CC[S][Re]2(=[O])[S]CC[N]2C(=O)C1 (mixture of isomers) [Compound O-1561, N-[(2-((3′-N′-Propyl-(1″R)-3″α-(3,4-dichlorophenyl)tropane-2″β-1′″-propanoyl)(2-mercaptoethyl)amino)acetyl)-2-aminoethane-thiolato]rhenium (V) Oxide]	5.3 nM	63	337 nM	–
COC(=O)C1=C(c2ccc3ccccc3c2)CC2CCC1N2CCC[N+]12CC[S][Re-]13(=[O])[S]CC[N]3C(=O)C2 (mixture of isomers) [Compound O-1185, N-[(2-((3′-N′-Propyl-(1″R)-2″-methoxycarbonyl-3″-(2-naphthyl)-trop-2-ene)(2-mercaptoethyl)amino)acetyl)-2-aminoethane-thiolato]-rhenium (V) Oxide]	63 nM	15	960 nM	–
CCC(=O)C1C(c2ccc(F)cc2)CC2CCC1N2CCC[N+]12CC[S][Re-]13(=[O])[S]CC[N]3C(=O)C2 (stereo not drawn) [Compound O-1505, N-[(2-((3′-N′-Propyl-(1″R)-3″α-(4-fluorophenyl)tropane-2″β-1′″-propanoyl)(2-mercaptoethyl)amino)acetyl)-2-aminoethane-thiolato]rhenium (V) Oxide]	2 nM	249	497 nM	–
CCC(=O)C1C(c2ccc(F)cc2)CC2CCC1N2CCCN1CC[S][99Tc]2(=[O])[S]CC[N]2C(=O)C1 (stereo not drawn) [Compound O-1508T, N-[(2-((3′-N′-Propyl-(1″R)-3″β-(4-fluorophenyl)tropane-2″β-1-propanoyl)-(2-mercaptoethyl)amino)acetyl)-2-aminoethanethiolato]technetium (V) Oxide]	–	–	–	accumulation of radioactivity in striatum vs other areas of the brain (SPECT images) (DAT sites in striatum [2]): failing to demonstrate significant accumulation of radioactivity in striatum or elsewhere in the brain
